Assay: in vitro
Conditions: human, hela cells, % viability

Row | Compound | viability at 28.5 h, 10 µM [%] | viability at 28.5 h, 10 µM (bulk resorufin, single well) [%]
1 | Nc1ncc(-c2ccc3c(c2)OCO3)nc1-c1ccc(O)cc1 [CBK122505] | 94.7 | 
2 | COC(=O)c1ccc(OCc2nnn[nH]2)cc1 [CBK269544] | 88.7 | 
3 | O=C(C1CCC1)N1CC(n2nc(-c3ccccc3)ccc2=O)C1 [CBK284624] | 79.2 | 
4 | CC(C)CNc1nccnc1-c1cccc(C=O)c1 [CBK088744] | 100 | 
5 | O=C(C1CCC1)N1CCCC1c1nnc(-c2ccsc2)o1 (centres unmarked) [CBK283365] | 101 | 
6 | CC(Oc1ccc(Cl)cc1Cl)C(=O)Nc1ccc(OCC(=O)O)cc1 (centres unmarked) [CBK266542] | 98.8 | 
7 | CCn1cc(CN2CCCN(C(=O)c3cc(C)on3)CC2)cn1 [CBK306145] | 88.1 | 
8 | CCC(C)C(=O)N1CCC(c2nnc3n2CCCCC3)CC1 (centres unmarked) [CBK282260] | 85.4 | 
9 | COCCN(Cc1cnn(C)c1)C(=O)c1nc2ccccn2c1F [CBK306892] | 100 | 
10 | O=C(NCC1CCCO1)c1cc(S(=O)(=O)N2CCOCC2)c(Cl)cc1Cl (centres unmarked) [CBK269691] | 90.3 | 
11 | O=C(c1cccs1)N1CCC(n2cnc3cccnc32)CC1 [CBK283938] | 88.4 | 
12 | CN1CCN(C)C(COc2cc(C(F)(F)F)ccn2)C1 (centres unmarked) [CBK113460] | 90.7 | 
13 | NS(=O)(=O)c1ccc(Nc2ncccc2[N+](=O)[O-])cc1 [CBK261724] | 91.6 | 
14 | Cc1cc(O)cc(=O)n1Cc1ccccn1 [CBK291159] | 91.8 | 
15 | Cc1ccc(C(=O)N2CCC(C(=O)NC(c3ccccc3)c3ccc4ccccc4n3)CC2)cc1 (centres unmarked) [CBK059663] | 87.9 | 
16 | CCc1cnc(CN(C)C2CCN(CC(=O)NCc3ccco3)C2)o1 (centres unmarked) [CBK306137] | 94.8 | 
17 | CCOc1cc(NC2CCN(C(=O)Cc3ccncc3)CC2)ncn1 [CBK304752] | 101 | 
18 | Cc1ccc(C2=CCN(CC(=O)N3CCc4ccccc43)CC2)o1 [CBK283918] | 88.1 | 
19 | CC(=O)NC1(c2ccc(F)cc2)CCN(C(=O)C2CCCCC2)CC1 [CBK283546] | 96.9 | 
20 | c1ccc2sc([C@H]3CCNC3)nc2c1 [CBK289389] | 91.2 | 
21 | CCn1c(=O)n(CC(=O)N2CCC(C)CC2)c2cccnc21 [CBK283895] | 95.9 | 
22 | CC1CCN(CC(CS(=O)(=O)c2ccc([N+](=O)[O-])cc2)N2CCC(C)CC2)CC1 (centres unmarked) [CBK267506] | 86.2 | 
23 | Cn1c(=O)c2c(nc(N3CCOCC3)n2CC/N=C2/CCCCCN2)n(C)c1=O [CBK267708C] | 85.7 | 

Row | Compound | viability at 28.5 h, 10 µM [%] | viability at 28.5 h, 10 µM (bulk resorufin, single well) [%]
24 | Cc1ccc(OCc2nnc(SCC(=O)c3cccs3)n2-c2ccccc2)cc1C [CBK265033] | 101 | 
25 | CN(C)CCN(C)c1nc(-c2ccccc2F)cn2ccnc12 [CBK037406] | 99.8 | 
26 | OC(CCNC1CCCCC1)(c1ccccc1)c1ccccc1 [CBK013339] | 101 | 
27 | OCCn1ncc2c(NCc3cccnc3-n3cccn3)ncnc21 [CBK305977] | 90.6 | 
28 | CC(C)Nc1nccnc1-c1cccnc1 [CBK037054] | 98.9 | 
29 | Cc1cc2oc(=O)cc(COC(=O)c3ccc(-n4cccn4)cc3)c2cc1Cl [CBK296626] | 93.9 | 
30 | CC(C)NC(=O)CN(CCO)Cc1cc(Br)ccc1F [CBK304944] | 90.7 | 
31 | COC(=O)c1sc2cc(NC(=S)NCc3ccc(S(N)(=O)=O)cc3)ccc2c1Cl [CBK267094] | 81.7 | 
32 | CC(NC(=O)CC1CCN(Cc2cccc(C(F)(F)F)c2)CC1)c1nc2ccccc2[nH]1 (centres unmarked) [CBK285952] | 104 | 
33 | CC(=O)NCCOc1nc(N(C)C)nc(N2CCOCC2)n1 [CBK266651] | 96.7 | 
34 | Cc1cc(/C=C/C2=CCN(C)CC2)c(C)n1C1CC1 [CBK283858] | 85.9 | 
35 | CC(NC(=O)Cc1ccc(-c2ccccc2)cc1)c1cccnc1 (centres unmarked) [CBK295147] | 95 | 
36 | COC(=O)CCc1ccc(S(=O)(=O)N2CCCN(Cc3cccc(C(F)(F)F)c3)CC2)cc1 [CBK062983] | 100 | 
37 | COc1ccc(CCN(Cc2ccc(Cl)c(Cl)c2)C(=O)NCc2ccc(C#N)cc2)cc1OC [CBK158771] | 100 | 
38 | O=C1C[C@@H]2CCN(C(=O)NC3CCCCC3)C[C@@H]2CCN1CCN1CCNC1=O [CBK288796] | 96.4 | 
39 | CC(=O)NS(=O)(=O)c1ccc(NC(=O)c2cn(-c3ccccc3)nc2-c2cccs2)cc1 [CBK296125] | 86.3 | 
40 | O=C(CN(Cc1ccc(F)cc1)S(=O)(=O)c1ccc(Cl)cc1)Nc1ccc2c(c1)OCCO2 [CBK265346] | 90.2 | 
41 | Cc1ccc(Cn2nc(C(=O)Nc3cc(C)on3)c3ccccc32)cc1 [CBK047844] |  | 98.7
42 | Cc1ccc2oc(-c3cc(NC(=O)c4nc[nH]n4)ccc3O)nc2c1 [CBK266900] | 101 | 
43 | CC(=O)Nc1cccc(Oc2nccnc2-c2ccc(C)cc2C)c1 [CBK106986] | 95.3 | 
44 | Cn1ncc2c(=O)n(Cc3nnsc3Cl)cnc21 [CBK237374] | 102 | 
45 | CCn1c(SCC(=O)Nc2ccccc2OC)nnc1-c1ccc(N)cc1 [CBK265859] | 111 | 
46 | CC[C@@H]1C(=O)OC[C@@H]1Cc1cncn1C [CBK005338C] | 85.3 | 

Row | Compound | viability at 28.5 h, 10 µM [%] | viability at 28.5 h, 10 µM (bulk resorufin, single well) [%]
47 | CCOC(=O)c1sc(NCCOc2cccc(C)c2)nc1C [CBK265574] | 85.2 | 
48 | CCCC/C=C/c1cnc(N)c(Nc2ccc3[nH]ccc3c2)n1 [CBK063811] | 95.7 | 
49 | O=C(O)CSc1nc2ccc([N+](=O)[O-])cc2[nH]1 [CBK265192] | 86.9 | 
50 | CC1(C)Cc2nc3sc(C(=O)O)c(NC(=O)c4ccccc4)c3cc2CO1 [CBK266166] | 98.4 | 
51 | Cc1cnn(C2(C(=O)O)CCN(C(=O)c3cccc(C#N)c3)CC2)c1 [CBK307058] | 102 | 
52 | O=C(CCCCCN1C(=O)c2ccccc2C1=O)Nc1cccc(C(=O)O)c1 [CBK287261] | 85.4 | 
53 | O=C(NCCN1CCCCC1)C1CC(=O)N(Cc2ccccc2)C1 (centres unmarked) [CBK305150] | 96.5 | 
54 | COCOc1ccc(-c2nccnc2OC2CCCCC2)cc1 [CBK106917] | 94.3 | 
55 | O=C1COc2ccccc2C/C=C/CC2(CCN(C(=O)c3n[nH]c4ccccc34)CC2)CN1 [CBK292021] | 88.9 | 
56 | CCc1nn(CC(=O)N(CC)CC)c(=O)c2cc3oc(C)cc3n12 [CBK283583] | 99.5 | 
57 | Cc1cc(C)n(CCCNC(=O)Cn2cnc3sc(C)c(C)c3c2=O)n1 [CBK305852] | 76.2 | 
58 | CN1CCN(C)C(COc2ccc(C(F)(F)F)cn2)C1 (centres unmarked) [CBK113288] | 96.8 | 
59 | COc1cc(CNCc2cccnc2)cc(Cl)c1OCc1cccs1 [CBK270026C] | 96.2 | 
60 | Cc1cc(NC(=O)C(C)SCc2cccc(C(F)(F)F)c2)no1 (centres unmarked) [CBK306233] | 95.5 | 
61 | CCc1noc(CN2CCCC(c3ccc(C(=O)O)cc3)C2)n1 (centres unmarked) [CBK307102] | 105 | 
62 | Cc1nc2ccc(NC(=O)CC3CCN(S(=O)(=O)c4cccc(F)c4)CC3)cc2[nH]1 [CBK285903] | 88.8 | 
63 | CC1OC(n2ccc(=S)[nH]c2=O)C(O)C1O (centres unmarked) [CBK012231] | 103 | 
64 | COC(=O)c1c(C)[nH]c(C(=O)CSc2ncnc3scc(-c4ccccc4)c23)c1C [CBK265918] | 95.5 | 
65 | CC(C)(C)OC(=O)N1CCN(CCCOC2(C)SC(NC3CC4CCC3C4)=NC2=O)CC1 (centres unmarked) [CBK115612] | 95.9 | 
66 | CCCC12CN3CC(CCC)(CN(C1)C3c1ccc(O)c(OC)c1)C2=O (centres unmarked) [CBK265531] | 89 | 
67 | COc1ccc(C2(C(=O)NCc3cnc(C)cn3)CC2)cc1 [CBK149830] | 98.5 | 
68 | COc1cc2c(cc1S(N)(=O)=O)C(=O)CCC2 [CBK010234] | 92.2 | 
69 | c1cc(-c2nccnc2OCCn2ccnc2)ccn1 [CBK106737] | 87 | 

Row | Compound | viability at 28.5 h, 10 µM [%] | viability at 28.5 h, 10 µM (bulk resorufin, single well) [%]
70 | Cc1cccnc1NC(=O)c1ccc(N2CCN(C)CC2)c([N+](=O)[O-])c1 [CBK269366] | 95.4 | 
71 | Nc1ccc2ccc(-c3cccc(C(F)(F)F)c3)nc2n1 [CBK067629] | 97.5 | 
72 | COc1ccc(-n2nc3ccc(NC(=O)c4sc5ccccc5c4Cl)cc3n2)cc1Cl [CBK264633] | 94.5 | 
73 | O=C(c1cc(F)c(F)cc1F)N1CCC2(CCCN(CCN3CCOCC3)C2)C1 (centres unmarked) [CBK132015] | 82.8 | 
74 | COc1ccc(-c2coc3c(C)c4oc(=O)c(CC(=O)O)c(C)c4cc23)cc1 [CBK269403] | 105 | 
75 | CCOc1nc(NCCC2=CCCCC2)nc(OCC)n1 [CBK027387] | 86.9 | 
76 | N#Cc1c(NC(=S)NC(=O)c2ccc(-c3cccc([N+](=O)[O-])c3)o2)sc2c1CCCC2 [CBK268471] | 92 | 
77 | O=C(O)CCC/N=C1/CCCc2ccccc2N1 [CBK261435] | 104 | 
78 | O=C1COc2ccccc2CCCCC2(CCCN(C(=O)CCN3CCCC3=O)C2)CN1 (centres unmarked) [CBK291998] | 103 | 
79 | Cc1cc(C(=O)NCc2c(-c3ccccc3)noc2C)n[nH]1 [CBK144076] | 91.4 | 
80 | CCCN1CC(NS(=O)(=O)c2ccc(OC)c3c2CCCC3)CC1=O (centres unmarked) [CBK307098] | 79.7 | 
81 | CCc1c(Cc2[nH]c(C)c(C(C)=O)c2C)[nH]c(C(=O)O)c1C [CBK286717] | 91.3 | 
82 | CC(=O)Nc1ccc(C(=O)N2CCNC(=O)C2Cc2ccccc2-c2cccc(C)c2)cc1 (centres unmarked) [CBK285837] | 106 | 
83 | CC(=O)NCC(=O)N(c1ccccc1)C1(C(=O)NC(c2ccccc2)c2ccccc2)CCCC1 [CBK100884] | 102 | 
84 | CC(=O)N1C[C@@H](c2cccc(C)c2)[C@@H]2CN(CC3CC3)CC[C@@H]21 [CBK283372] | 103 | 
85 | CCOC(=O)c1cnc(SC)nc1N1CCOCC1 [CBK018971] | 90.7 | 
86 | COC(=O)c1ccsc1NS(=O)(=O)c1cc(Cl)sc1Cl [CBK039062] | 88.2 | 
87 | Cc1nn(-c2ccccc2)c(CN2C(=O)NC3(CCCC3)C2=O)c1C#N [CBK305572] | 81.4 | 
88 | CCc1ccc(OC)c(S(=O)(=O)N2CCOCC2)c1 [CBK268214] | 117 | 
89 | Cc1oc2c(c1CC(=O)N(C)CCN(C)C)C(=O)CC(C)(C)C2 [CBK282171] | 105 | 

From publication PMC12040169 (PLOS Biology, 2025)
